Results as given in US5968910A, “Compositions containing two or three inhibitors of different HIV reverse transcriptases” (priority 1994, dated 1999).
Converted amounts (≈) assume the structure as drawn. Where two headings read alike, the source gives them in different places.

How the values were obtained:
[1] = target: HIV-1 RT (WT) (Human immunodeficiency virus type 1 group M subtype B, UniProt P03366); experiment: biochemical
Method in brief: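 Recombinant HIV-1 RT incubated 30 min at 37° C with poly(C).oligo(dG) (0.1 mM) and [³H]dGTP (2.95 μM) in Tris pH 7.8 with 5 mM MgCl2, 150 mM KCl, DTT, glutathione, Triton X-100; 5-fold compound dilutions. Acid-insoluble radioactivity counted after TCA/pyrophosphate precipitation.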

[2] = tested on: HIV-1/V(0.5) 103-Asn; experiment: Sensitivity of mutant HIV-1 strain in CEM cell cultures; format: cell-based; settings: Human immunodeficiency virus 1, CCRF-CEM; Table 5; read-out: EC50
Method in brief: (§1)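 CEM cells at 250,000 cells/ml were infected with HIV-1 at 100 CCID50 per ml, then mixed with serial dilutions of test compound. After 4 days at 37° C., cultures were scored for syncytium formation.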

[3] = tested on: HIV-1/TIBO R82913 (103-Asn); experiment: as above; format: cell-based; settings: Human immunodeficiency virus 1, CCRF-CEM; CEM cells, Table 1; read-out: 50% Effective Concentration
Method in brief: as §1

[4] = tested on: HIV-1/V(0.1) 101-Ile + 141-Glu; experiment: as above; format: cell-based; settings: Human immunodeficiency virus 1, CCRF-CEM; Table 5; read-out: EC50
Method in brief: as §1

[5] = tested on: HIV-1/II(0.1) 100-Ile; experiment: as above; format: cell-based; settings: Human immunodeficiency virus 1, CCRF-CEM; Table 5; read-out: EC50
Method in brief: as §1

[6] = tested on: HIV-1/Nev (106-Ala); experiment: as above; format: cell-based; settings: Human immunodeficiency virus 1, CCRF-CEM; CEM cells, Table 1; read-out: 50% Effective Concentration
Method in brief: as §1

[7] = tested on: HIV-1/Pyr (181-Cys); experiment: as above; format: cell-based; settings: Human immunodeficiency virus 1, CCRF-CEM; CEM cells, Table 1; read-out: 50% Effective Concentration
Method in brief: as §1

[8] = tested on: HIV-1/TIBO R82150 (100-Ile); experiment: as above; format: cell-based; settings: Human immunodeficiency virus 1, CCRF-CEM; CEM cells, Table 1; read-out: 50% Effective Concentration
Method in brief: as §1

[9] = tested on: HIV-1/I(0.1) 103-Asn; experiment: as above; format: cell-based; settings: Human immunodeficiency virus 1, CCRF-CEM; Table 5; read-out: EC50
Method in brief: as §1

[10] = tested on: HIV-1/IV(0.1) 103-Thr; experiment: as above; format: cell-based; settings: Human immunodeficiency virus 1, CCRF-CEM; Table 5; read-out: EC50
Method in brief: as §1

[11] = tested on: HIV-1/III(0.1) 103-Asn; experiment: as above; format: cell-based; settings: Human immunodeficiency virus 1, CCRF-CEM; Table 5; read-out: EC50
Method in brief: as §1

[12] = tested on: HIV-1/TSAO-m^3 T (138-Lys); experiment: as above; format: cell-based; settings: Human immunodeficiency virus 1, CCRF-CEM; CEM cells, Table 1; read-out: 50% Effective Concentration
Method in brief: as §1

[13] = tested on: HIV-1(IIIB); experiment: Knock-out concentrations: breakthrough of HIV-1(IIIB)-induced cytopathicity in CEM cell cultures; format: cell-based; settings: for activity at 0.1 µg/mL / activity at 0.5 µg/mL / activity at 2.5 µg/mL: Human immunodeficiency virus 1, IIIB, CCRF-CEM, read-out: HIV-1-induced cytopathicity in cell culture; for activity at 0.1 µg/mL: 0.1 μg/ml; for activity at 0.5 µg/mL: 0.5 μg/ml; for activity at 2.5 µg/mL: 2.5 μg/ml
Method in brief: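 CEM cells in RPMI 1640 with 10% FBS infected with HIV-1(IIIB) at ~1000× CCID50, subcultured every 3–4 days into fresh uninfected cells with drug held constant for 10 subcultivations (35 days), then ≥5 drug-free passages. Breakthrough scored by syncytium formation. Combinations used the two lowest single-drug starting concentrations.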

[14] = tested on: HIV-1(IIIB) (WT); experiment: microbe, parasite or virus in culture; format: cell-based; settings: Human immunodeficiency virus 1, IIIB, CCRF-CEM
Method in brief: as §1

[15] = 936 h, day 39 post infection, compound absent from day 35
[16] = 1008 h, day 42 post infection, compound absent from day 35
[17] = 1104 h, day 46 post infection, compound absent from day 35
[18] = 1176 h, day 49 post infection, compound absent from day 35
[19] = 1272 h, day 53 post infection, compound absent from day 35

Work on `Cc1occc1C(=S)Nc1ccc(Cl)c(C=NOC(C)(C)C)c1` [Compound I] yielded an IC50 ([1]; range stated for the compounds together, poly(C).oligo(dG), 2.95 μM [2,8-3H]dGTP, read-out: IC50 on recombinant HIV-1 RT) of 51.3 to 219 nM, an IC50 ([1]; substrate [2,8-3H]dGTP 2.95 μM, template poly(rC)oligo(dG), read-out: IC50, anti-HIV-1 RT (WT) activity (converted)) of 202 nM and an EC50 [2] of 0.73 µg/mL (≈ 2.08 µM). For the same molecule, the EC50 [3] was no less than 1 µg/mL, the EC50 [4] was 0.12 µg/mL (≈ 0.342 µM) and the EC50 [5] was 1.25 µg/mL (≈ 3.56 µM). For the same molecule, the EC50 [6] was 0.13 µg/mL (≈ 0.371 µM), the EC50 [7] was 0.075 µg/mL (≈ 0.214 µM) and the EC50 [8] was 0.085 µg/mL (≈ 0.242 µM). The EC50 [9] was 0.23 µg/mL (≈ 0.656 µM), the EC50 [10] was 0.6 µg/mL (≈ 1.71 µM) and the EC50 [11] was 0.3 µg/mL (≈ 0.855 µM). For the same molecule, the EC50 [12] was 0.075 µg/mL (≈ 0.214 µM), the “prevention of virus breakthrough, fold more efficient than BHAP” value [13] was “at least 5 fold” and the “prevention of virus breakthrough, fold more efficient than nevirapine” value [13] was no less than 25 fold. The activity at 0.1 µg/mL ([13]; 96 h, day 4 post infection) was 0%, the activity at 0.5 µg/mL ([13]; 96 h, day 4 post infection) was 0% and the activity at 2.5 µg/mL ([13]; 96 h, day 4 post infection) was 0%. For the same molecule, the activity at 0.1 µg/mL ([13]; 192 h, day 8 post infection) was 0%, the activity at 0.5 µg/mL ([13]; 192 h, day 8 post infection) was 0% and the activity at 2.5 µg/mL ([13]; 192 h, day 8 post infection) was 0%. The activity at 0.1 µg/mL ([13]; 264 h, day 11 post infection) was 6.2%, the activity at 0.5 µg/mL ([13]; 264 h, day 11 post infection) was 0% and the activity at 2.5 µg/mL ([13]; 264 h, day 11 post infection) was 0%. For the same molecule, the activity at 0.1 µg/mL ([13]; 336 h, day 14 post infection) was 25%, the activity at 0.5 µg/mL ([13]; 336 h, day 14 post infection) was 0% and the activity at 2.5 µg/mL ([13]; 336 h, day 14 post infection) was 0%. The activity at 0.1 µg/mL ([13]; 408 h, day 17 post infection) was 100%, the activity at 0.5 µg/mL ([13]; 408 h, day 17 post infection) was 0% and the activity at 2.5 µg/mL ([13]; 408 h, day 17 post infection) was 0%. For the same molecule, the activity at 0.1 µg/mL ([13]; 504 h, day 21 post infection) was 100%, the activity at 0.5 µg/mL ([13]; 504 h, day 21 post infection) was 0% and the activity at 2.5 µg/mL ([13]; 504 h, day 21 post infection) was 0%. The activity at 0.1 µg/mL ([13]; 600 h, day 25 post infection) was 100%, the activity at 0.5 µg/mL ([13]; 600 h, day 25 post infection) was 0% and the activity at 2.5 µg/mL ([13]; 600 h, day 25 post infection) was 0%. The activity at 0.1 µg/mL ([13]; 672 h, day 28 post infection) was 100%, the activity at 0.5 µg/mL ([13]; 672 h, day 28 post infection) was 0% and the activity at 2.5 µg/mL ([13]; 672 h, day 28 post infection) was 0%. For the same molecule, the activity at 0.1 µg/mL ([13]; 768 h, day 32 post infection) was 100%, the activity at 0.5 µg/mL ([13]; 768 h, day 32 post infection) was 0% and the activity at 2.5 µg/mL ([13]; 768 h, day 32 post infection) was 0%. The activity at 0.1 µg/mL ([13]; 840 h, day 35 post infection) was 100%, the activity at 0.5 µg/mL ([13]; 840 h, day 35 post infection) was 0% and the activity at 2.5 µg/mL ([13]; 840 h, day 35 post infection) was 0%. It also gave an activity at 0.1 µg/mL [13, 15] of 100%, an activity at 0.5 µg/mL [13, 15] of 0% and an activity at 2.5 µg/mL [13, 15] of 0%. For the same molecule, the activity at 0.1 µg/mL [13, 16] was 100%, the activity at 0.5 µg/mL [13, 16] was 0% and the activity at 2.5 µg/mL [13, 16] was 0%. For the same molecule, the activity at 0.1 µg/mL [13, 17] was 100%, the activity at 0.5 µg/mL [13, 17] was 0% and the activity at 2.5 µg/mL [13, 17] was 0%. For the same molecule, the activity at 0.1 µg/mL [13, 18] was 100%, the activity at 0.5 µg/mL [13, 18] was 0% and the activity at 2.5 µg/mL [13, 18] was 0%. It also gave an activity at 0.1 µg/mL [13, 19] of 100%, an activity at 0.5 µg/mL [13, 19] of 0% and an activity at 2.5 µg/mL [13, 19] of 0%. The “concentration at which virus emerged (virus breakthrough)” value ([13]; tested at 0.1, 0.5 and 2.5 μg/ml, 35 days) was 0.1 µg/mL, the EC50 ([14]; CEM cells, Table 1, read-out: 50% Effective Concentration) was 0.05 µg/mL (≈ 0.143 µM) and the EC50 ([14]; HIV-1 (III8), Table 5, read-out: EC50) was 0.01 µg/mL (≈ 0.0285 µM). For the same molecule, the IC50 ([14]; range stated for Compounds I-V together, read-out: 50% inhibitory concentration, HIV-1(IIIB) replication in CEM cells) was 0.004 to 0.05 µg/mL (≈ 0.0114 to 0.143 µM).
